Laboratory results from ChEMBL document CHEMBL1133831 (Bioorg Med Chem Lett, 2001).

What was measured:
[1] = molecular target: T1, Muscarinic acetylcholine receptor M1 (Homo sapiens, UniProt P11229); test: Ability to displace [3H]N-methylscopolamine from Muscarinic acetylcholine receptor M1 expressed in CHO cells.; type: cell-based
T1 sequence (P11229 whole entry): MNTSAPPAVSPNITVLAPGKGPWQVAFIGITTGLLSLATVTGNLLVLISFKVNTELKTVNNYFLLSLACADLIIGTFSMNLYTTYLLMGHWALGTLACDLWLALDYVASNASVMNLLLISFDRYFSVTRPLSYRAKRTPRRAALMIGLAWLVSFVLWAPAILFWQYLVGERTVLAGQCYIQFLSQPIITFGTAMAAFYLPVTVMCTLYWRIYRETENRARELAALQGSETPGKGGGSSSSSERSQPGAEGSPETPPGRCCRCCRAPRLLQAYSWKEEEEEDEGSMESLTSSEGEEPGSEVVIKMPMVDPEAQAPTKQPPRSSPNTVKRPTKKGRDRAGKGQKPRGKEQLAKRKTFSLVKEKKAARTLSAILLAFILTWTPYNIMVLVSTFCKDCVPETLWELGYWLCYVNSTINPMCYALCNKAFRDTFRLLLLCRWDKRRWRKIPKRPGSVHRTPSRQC

[2] = molecular target: T1, Muscarinic acetylcholine receptor M1; test: Ability to displace [3H]oxotremorine from Muscarinic acetylcholine receptor M1 expressed in CHO cells.; type: cell-based

| Compound | IC50 [1] [µM] | IC50 [2] [µM] |
| --- | --- | --- |
| Clc1cc(CO/N=C/C2CN3CCC2C3)on1 (centres undefined) | 14.9 | 0.044 |
| COc1cc(CO/N=C2\CN3CCC2C3)on1 (centres undefined) | 40.5 | 0.131 |
| Clc1cc(CO/N=C/C2CN3CCC2CC3)on1 (centres undefined) | 23.5 | 0.795 |
| Brc1cc(CO/N=C/C2CN3CCC2C3)on1 (centres undefined) | 17.7 | 0.385 |
| N#Cc1cc(CO/N=C2\CN3CCC2CC3)on1 | 8.7 | 0.081 |
| Clc1cc(CO/N=C2\CN3CCC2C3)on1 (centres undefined) | 36.3 | 0.023 |
| Brc1cc(CO/N=C2\CN3CCC2C3)on1 (centres undefined) | 48.8 | 0.079 |
| COc1cc(CO/N=C2\CN3CCC2CC3)on1 | 35.6 | 0.362 |
| Brc1cc(CO/N=C/C2CN3CCC2CC3)on1 (centres undefined) | 8.4 | 1.22 |
| Brc1cc(CO/N=C2\CN3CCC2CC3)on1 | 11.5 | 0.072 |
| COc1cc(CO/N=C/C2CN3CCC2C3)on1 (centres undefined) | 16.7 | 0.287 |
| COc1cc(CO/N=C/C2CN3CCC2CC3)on1 (centres undefined) | 29.5 | 1.64 |
| N#Cc1cc(CO/N=C2\CN3CCC2C3)on1 (centres undefined) | 32.5 | 0.082 |
| N#Cc1cc(CO/N=C/C2CN3CCC2C3)on1 (centres undefined) | 189 | 1.86 |
| N#Cc1cc(CO/N=C/C2CN3CCC2CC3)on1 (centres undefined) | 133 | 0.341 |
| Clc1cc(CO/N=C2\CN3CCC2CC3)on1 | 13.8 | 0.057 |
| O=C1CCCN1CC#CCN1CCCC1 [OXOTREMORINE] | 27.1 | 0.0023 |
